US20100004333A1, “COMPOSITIONS AND METHODS FOR TREATING CARDIOVASCULAR DISORDERS” (priority 2004, published 2010)
Marks after values point to notes of the source that are not given here.

Key:
apoE−/− mice [1] = test: Aortic biochemistry (non-oxidized lipids, α-tocopherol, oxidized lipids) in aortic segments of apoE−/− mice; format: in vivo; details: 1% probucol, 24 weeks, mean ± SD; for Lipids: C: 4 pools; for Oxidized lipids: F2-isoprostanes / Oxidized lipids: F2-isoprostanes per arachidonate: ten sections
Source text: Male C57BL/6J mice, homozygous for the disrupted apoE gene (apoE−/−) and originally purchased from Jackson Laboratories (Bar Harbor, Me.), were used at 8-10 weeks of age and then fed for 24 weeks ad libitum a high fat diet containing 21.2 (w/w) fat and 0.15% (w/w) cholesterol (specifications of the Harlan Teklad diet TD88137), without (controls, 103 mice) or with probucol (1% w/w, 87 mice), as described in Arteriosclerosis Thrombosis and Vascular Biology 2000, 20:e26-e33. The local animal ethics committee approved the study.
Procedures were carried out as described in Arteriosclerosis Thrombosis and Vascular Biology 2000, 20:e26-e33. For biochemistry, hearts and aortas past the femoral bifurcation were excised carefully (n=86 and 70 for control and probucol animals, respectively), cleaned, placed immediately in ice-cold buffer containing protease inhibitors and antibiotics, and then stored at −80° C. For histology, separate mice (n=17 each, for controls and probucol) were perfusion fixed, the hearts and aortas dissected and processed for blinded morphometry at the sinus, arch and descending thoracic and abdominal aorta, precisely as described in Arteriosclerosis Thrombosis and Vascular Biology 2000, 20:e26-e33. Mean areas from thoracic and abdominal aortas were similar and therefore combined and presented as a single value. For histology, sections at the sinus were taken ˜200 μm from the first appearance of the leaflets. Sections at the thoracic and abdominal aorta were taken at the branch point of the 3rd pair of intra-costal arteries and the celiac artery, respectively.
For F2-isoprostanes, the thawed aortic segment (≈20 mg wet weight) was blotted dry, weighed and F2-isoprostanes analyzed by electron capture negative ionization GC/MS after solid-phase extraction and HPLC purification as described in Analytical Biochemistry 1999, 268:117-125, using [D4]-8-iso-prostaglandin F2α (Cayman Chemical) as internal standard. For arachidonate, phospholipids were separated by thin-layer chromatography, the fatty acid methyl esters then prepared and analyzed by GLC, as described in American Journal of Clinical Nutrition 2000, 71:1085-1094.
For other analytes, pooled aortic segments were homogenized and extracted as described in Journal of Lipid Research 1999, 40:1104-1112, and the organic phase analysed by HPLC with electrochemical (for α-tocopherol), UV (C and CE) and post-column chemiluminescence detection (CE-OOH) as described in Methods in Enzymology 1999, 299:362-375. CE-OOH were measured as a marker of primary lipoprotein lipid peroxidation as they are the primary and major lipid oxidation products formed in lipoproteins from apoE−/− mice undergoing oxidation in the presence of α-tocopherol. For total cholesterol and 7KC, separate 10 μL and 100 μL aliquots, respectively, of the re-dissolved organic extracts were saponified, and subjected to HPLC as described in Journal of Lipid Research 1997, 38:1730-1745. For 7KC, a silica column (0.46×15 cm, 120 Å, 5 μm, Supelco) with guard column (3 μm particle size) was eluted with hexane/isopropylalcohol/acetonitrile (94.8:4.6:0.6 v/v/v) at 1.0 mL/min and monitored at 234 nm. For all chromatographic analyses, compounds were quantified by area comparison using authentic standards.

apoE−/− mice [2] = test: Histology of lesions: total cells, macrophages (F4/80), extra-cellular matrix (collagen) in apoE−/− mice; format: in vivo; details: for % ECM of total lesion area / % Mφ of total lesion area / ECM area / Lesion area (extra-cellular matrix series) / Lesion area (macrophage series) / Mφ area / Lesion area (total cell density series) / Total cells/μm^2 / Total number of cells: mean ± SD
Source text: The materials and methods used were essentially as described under Example 1. In addition, for total cell numbers, nuclei were counted in hematoxylin and eosin-stained sections and expressed per lesion area. At the sinus, sections were taken ˜200 μm from the first appearance of the leaflets. Sections at the thoracic and abdominal aorta were taken at the branch point of the 3rd pair of intra-costal arteries and the celiac artery, respectively. For macrophages, 4 μm paraffin sections were deparaffinized, rehydrated and endogenous peroxidase quenched with 3% hydrogen peroxide (15 min). Enzymatic antigen retrieval was performed in trypsin (1 mg/mL) solutions pH 7.7 containing 4 mM CaCl2 and 200 mM Tris for 30 min at 37° C., followed by a 20 min incubation in 5% normal rabbit blocking serum. Sections were then incubated overnight in a humidified chamber and at 4° C. with monoclonal rat-anti-mouse F4/80 antibody (Caltag Laboratories; dilution 1:20), followed by biotinylated rabbit anti-rat IgG (Vector Laboratories; dilution 1:200, 30 min), Vectorstain Elite ABC reagent (Vectorstain Elite ABC Kit, Vector Laboratories; 30 min), and 3,3′-diaminobenzidine substrate-chromogen (Dako Corporation) with counterstaining using Harris hematoxylin. Images were captured using a Zeiss Axiophot Photomicroscope, and the area staining positive for F4/80 antigen expressed as a percentage of the total lesion area. Collagen was determined as described in Histochemical Journal 1979, 11:447-455. Briefly, 4 μm sections were deparaffinized, rehydrated and stained with 0.1% Sirius red (Fast red F3B) in saturated aqueous picric acid (pH 2.0) for 1 h at room temperature and then transferred to a solution of 0.01 N HCl for 2 min followed by counterstaining in Harris hematoxylin for 1 min. Total lesion area were measured from bright field images captured with an Olympus BX60 photomicroscope attached with a SPOT digital camera, whereas the birefringent area staining positive for Sirius red was detected using polarization microscopy and expressed as a percentage of the total lesion area at that site.

[3] = descending aorta, versus control

For `CC(C)(Sc1cc(C(C)(C)C)c(O)c(C(C)(C)C)c1)Sc1cc(C(C)(C)C)c(O)c(C(C)(C)C)c1` [probucol], the “Antioxidants: α-Tocopherol” value (apoE−/− mice [1]; Arch) was 1.6 ± 0.3^a nmol/mgp, the “Lipids: C18:2” value (apoE−/− mice [1]; Arch) was 33 ± 9^a nmol/mgp and the “Lipids: C20:4” value (apoE−/− mice [1]; Arch) was 17 ± 3^a nmol/mgp. For the same compound, the “Oxidized lipids: 7KC” value (apoE−/− mice [1]; Arch) was 0.20 ± 0.11 pmol/mgp, the “Oxidized lipids: 7KC/total cholesterol” value (apoE−/− mice [1]; Arch) was 0.25 ± 0.20 mmol/mol and the “Oxidized lipids: CE-OOH” value (apoE−/− mice [1]; Arch) was 143.8 ± 118.7 pmol/mgp. The “Oxidized lipids: CE-OOH/CE” value (apoE−/− mice [1]; Arch) was 2.70 ± 2.04 mmol/mol, the “Lipids: C” value (apoE−/− mice [1]; Arch) was 447 ± 71^a nmol/mgp and the “Oxidized lipids: F2-isoprostanes” value (apoE−/− mice [1]; Arch) was 0.35 ± 0.11 pmol/mgp. For the same compound, the “Oxidized lipids: F2-isoprostanes per arachidonate” value (“Oxidized lipids … per arachidonate” below) (apoE−/− mice [1]; Arch) was 10.4 ± 3.6 μmol/mol arachidonate, the “Antioxidants: α-Tocopherol” value (apoE−/− mice [1]; Sinus) was 3.0 ± 1.2 nmol/mgp and the “Lipids: C18:2” value (apoE−/− mice [1]; Sinus) was 61 ± 11 nmol/mgp. The “Lipids: C20:4” value (apoE−/− mice [1]; Sinus) was 33 ± 6 nmol/mgp, the “Oxidized lipids: 7KC” value (apoE−/− mice [1]; Sinus) was 0.21 ± 0.11 pmol/mgp and the “Oxidized lipids: 7KC/total cholesterol” value (apoE−/− mice [1]; Sinus) was 0.16 ± 0.06 mmol/mol. For the same compound, the “Oxidized lipids: CE-OOH” value (apoE−/− mice [1]; Sinus) was 88.1 ± 26.6 pmol/mgp, the “Oxidized lipids: CE-OOH/CE” value (apoE−/− mice [1]; Sinus) was 0.93 ± 0.12 mmol/mol and the “Lipids: C” value (apoE−/− mice [1]; Sinus) was 928 ± 144 nmol/mgp. The “Oxidized lipids: F2-isoprostanes” value (apoE−/− mice [1]; Sinus) was 0.39 ± 0.11 pmol/mgp, the “Oxidized lipids … per arachidonate” value (apoE−/− mice [1]; Sinus) was 8.6 ± 4.8 μmol/mol arachidonate and the “Antioxidants: α-Tocopherol” value (apoE−/− mice [1]; Thoracic/Abdominal) was 1.2 ± 0.2^a nmol/mgp. The “Lipids: C18:2” value (apoE−/− mice [1]; Thoracic/Abdominal) was 10 ± 5^a,b nmol/mgp, the “Lipids: C20:4” value (apoE−/− mice [1]; Thoracic/Abdominal) was 5.0 ± 1.4^a,b nmol/mgp and the “Oxidized lipids: 7KC” value (apoE−/− mice [1]; Thoracic/Abdominal) was 0.10 ± 0.04 pmol/mgp. For the same compound, the “Oxidized lipids: 7KC/total cholesterol” value (apoE−/− mice [1]; Thoracic/Abdominal) was 0.08 ± 0.02 mmol/mol, the “Oxidized lipids: CE-OOH” value (apoE−/− mice [1]; Thoracic/Abdominal) was 20.3 ± 8.1 pmol/mgp and the “Oxidized lipids: CE-OOH/CE” value (apoE−/− mice [1]; Thoracic/Abdominal) was 1.46 ± 0.72 mmol/mol. For the same compound, the “Lipids: C” value (apoE−/− mice [1]; Thoracic/Abdominal) was 215 ± 55^a nmol/mgp, the “Oxidized lipids: F2-isoprostanes” value (apoE−/− mice [1]; Thoracic/Abdominal) was 0.14 ± 0.04^a,b pmol/mgp and the “Oxidized lipids … per arachidonate” value (apoE−/− mice [1]; Thoracic/Abdominal) was 3.8 ± 1.4^a,b μmol/mol arachidonate. For the same compound, the “% ECM of total lesion area” value (apoE−/− mice [2]; Sinus, n = 6) was 66±13%, the “% Mφ of total lesion area” value (apoE−/− mice [2]; Sinus, n = 6) was 14 ± 5^a % and the ECM area (apoE−/− mice [2]; Sinus, n = 6) was 577 ± 126^a μm^2 × 10^−3. For the same compound, the “Lesion area (extra-cellular matrix series)” value (apoE−/− mice [2]; Sinus, n = 6) was 878 ± 153^a μm^2 × 10^−3, the “Lesion area (macrophage series)” value (apoE−/− mice [2]; Sinus, n = 6) was 886 ± 89^a μm^2 × 10^−3 and the Mφ area (apoE−/− mice [2]; Sinus, n = 6) was 127 ± 53 ^ μm^2 × 10^−3. For the same compound, the “% ECM of total lesion area” value (apoE−/− mice [2]; Sinus, n = 6, listed as Probucol) was 66 ± 13^a %, the “Lesion area (total cell density series)” value (apoE−/− mice [2]; Sinus, n = 8) was 889 ± 254^a μm^2 × 10^−3 and the “Total cells/μm^2” value (apoE−/− mice [2]; Sinus, n = 8) was 1.7 ± 0.6^a cells/μm^2. The “Total number of cells” value (apoE−/− mice [2]; Sinus, n = 8) was 1423 ± 441 ^, the “% ECM of total lesion area” value (apoE−/− mice [2]; T/A, n = 6) was 0.0 ± 0.0^a % and the “% Mφ of total lesion area” value (apoE−/− mice [2]; T/A, n = 6) was 99.4 ± 1.4 ^ %. For the same compound, the ECM area (apoE−/− mice [2]; T/A, n = 6) was 0.0 ± 0.0^a μm^2 × 10^−3, the “Lesion area (extra-cellular matrix series)” value (apoE−/− mice [2]; T/A, n = 6) was 13 ± 3^a μm^2 × 10^−3 and the “Lesion area (macrophage series)” value (apoE−/− mice [2]; T/A, n = 6) was 22 ± 15^a μm^2 × 10^−3. The “Lesion area (total cell density series)” value (apoE−/− mice [2]; T/A, n = 6) was 22 ± 15^a μm^2 × 10^−3, the Mφ area (apoE−/− mice [2]; T/A, n = 6) was 21 ± 12^a μm^2 × 10^−3 and the “Total cells/μm^2” value (apoE−/− mice [2]; T/A, n = 6) was 0.36 ± 0.39^ cells/μm^2. For the same compound, the “Total number of cells” value (apoE−/− mice [2]; T/A, n = 6) was 10 ± 13^a, the Decrease in macrophages (apoE−/− mice [2]; [3]) was roughly 91% and the “Decrease in total cell numbers” value (apoE−/− mice [2]; [3]) was roughly 91%. For the same compound, the “Decrease in percentage of lesion area covered by macrophages” value (apoE−/− mice [2]; sinus, versus control) was roughly 50%.
